The source of these data is publication PMC7790557, “Pleiotropic Properties of Amphiphilic Dihydropyridines, Dihydropyridones, and Aminovinylcarbonyl Compounds” (Oxidative Medicine and Cellular Longevity, 2020).

Data set [1] concerns HT-1080 (human lung fibrosarcoma). Nature of the data set: Cytotoxicity, MTT assay, HT-1080. The class given is cell-based. Conditions: Homo sapiens, read-out: HT-1080 IC50 (MTT). The text has this: (§1) Reduction takes place only when mitochondrial reductase enzymes are active, and therefore, conversion is directly related to the number of viable cells which can be quantified by the absorbance of the solution (between λ = 500 and 600 nm) using a spectrophotometer.
Background: Tetrazolium dyes change colour on reduction, which living cells bring about.

The subject of data set [2] is MH-22A (mouse hepatoma). Nature of the data set: Cytotoxicity, crystal violet (CV) assay, MH-22A. The class given is cell-based. Conditions: Mus musculus, read-out: MH-22A IC50 (CV). Here is the method:
(§2) After incubation, the staining solution was removed. The cells were washed 4 times with water.

The subject of data set [3] is MH-22A (mouse hepatoma). Description: Cytotoxicity, MTT assay, MH-22A. Type of data set: cell-based. Conditions: Mus musculus, read-out: MH-22A IC50 (MTT).
Description: as §1

In the next data set the test system is NIH3T3. Description: in vitro. Conditions: for LD50 (calculated, NIH3T3): mouse. The text has this:
Data from the in vitro tests were used for estimating the starting dose for acute oral systemic toxicity tests in the rodent. The in vivo starting dose is an estimated LD50 value calculated by inserting the in vitroIC50 value into a regression formula: log LD50 (mM/kg) = 0.439 log IC50 (mM) + 0.621 [23–25]. […] Using an alternative in vitro method allows the comparison between possibly toxic new compounds and selecting compounds for further study vastly reducing the number of animal experiments.
Additionally, the compound influence on “normal” mouse fibroblasts (NIH3T3) was estimated for the studies of structure-activity relationships and exploration of the effect of substituents.

Data set [4] deals with HT-1080 (human lung fibrosarcoma). Description: Cytotoxicity, crystal violet (CV) assay, HT-1080. Conditions: Homo sapiens, HT-1080, 72 h, read-out: HT-1080 IC50 (CV).
Description: (§3) IC50 is the compound concentration (μg/ml) at which 50% of the cells die. […] CV staining can be used to quantify the total DNA of the remaining population and thus is used to determine the number of live cells based on the concentration of the dye which remains after staining.
(§4) Tumor cell lines HT-1080 (human connective tissue fibrosarcoma, ATCC® CCL-121™) and MH-22A (mouse hepatocarcinoma, ECACC, cat. Nr. 96121721) were used.
(§5) HT-1080 and MH-22A cells were seeded in 96-well plates in Dulbecco's modified Eagle's (DMEM) medium containing 10% fetal bovine serum and 4 mM L-glutamine, without antibiotics, and cultivated for 72 h by exposure to different concentrations of compounds. Cell viability was measured using 3-(4,5-dimethylthiazol-2-yl)-2,5-diphenyltetrazolinium bromide (MTT). In brief, after incubating with compounds, the culture medium was removed and fresh medium with 0.2 mg/ml MTT was added in each well of the plate. After incubation (3 h, 37°C, 5% CO2), the medium with MTT was removed, and 200 μl DMSO was added at once to each sample. The samples were tested at 540 nm on a Tecan Infinite M1000 multiplate reader. The IC50 was calculated using the program GraphPad Prism® 3.0.
(§6) For the CV assay, cells were stained with 0.05% crystal violet (Sigma-Aldrich) in 30% methanol for 20 minutes at room temperature. After incubation, the staining solution was removed. The cells were washed 4 times with water. For dye solubilization, 200 μl of a solubilizing solution (0.1 M citrate buffer, pH 4.2 in 50% ethanol; 1 : 1 v/v) was added. The absorbance of the solution was measured using a Tecan Infinite M1000 multiplate spectrophotometer at a wavelength of 570 nm [21].
The test system of data set [5] is NIH3T3 (mouse embryonic fibroblast). Description: Basal cytotoxicity test, Neutral Red Uptake (NRU) assay. Conditions: for IC50: Mus musculus.
Data set [6] in a line: Cytotoxicity, crystal violet (CV) assay, HT-1080. Conditions: human, HT-1080 cells (fibrosarcoma).
Description: as §3, §4, §5, §6
Another data set in a line: in vitro. Conditions: human and mouse; summarises both cell lines, CV and MTT; read-out: cytotoxicity on cancer cell lines HT-1080 and MH-22A. The class given is cell-based. Here is the method:
as §2

Data set [7] is described as follows: Electrochemical oxidation potentials, cyclic voltammetry. Type of data set: physicochemical. Conditions: glassy carbon electrode, dry acetonitrile; for Oxidation potential E^ox: Table 4, vs Ag/Ag+, 0.1 M TBABF4, tested as perchlorates; for electrooxidation potential: cyclic voltammetry. Here is the method: A stationary glassy carbon disk electrode (d = 0.5 mm) served as the working electrode, while the counterelectrode was a Pt wire. The oxidation potentials were measured relative to a Ag/Ag^+ reference electrode. Acetonitrile was dried over P2O5 and distilled; the distillate was stored over CaH2 and redistilled just before use. Recrystallized tetrabutylammonium tetrafluoroborate (TBABF4) was used as a supporting electrolyte at 0.1 M concentration.
The electrochemical oxidation of the selected compounds studied in this work was performed by cyclic voltammetry on a stationary glassy carbon electrode in dry acetonitrile; the data is presented in Table 4. The perchlorates of the tested amphiphiles were obtained from the corresponding bromides by treating their abs. MeOH solutions with excess of conc. HClO4 according to the procedure elaborated by Turovska et al..

Setting [8] is: HT-1080, Table 1, 72 h exposure.
[9] abbreviates: NIH3T3, 24 h, read-out: NIH3T3 IC50 (NR).
[10] abbreviates: NIH3T3, 24 h, read-out: NIH3T3 IC50 (NR), Table 1, 24 h exposure.

Molecules are shown by their SMILES. Where two headings read alike, the source gives them in different places. Bounds are passed on as bounds.

As to `CCOC(=O)C1=C(C[n+]2ccccc2)NC(C[n+]2ccccc2)=C(C(=O)OCC)C1c1ccccc1C(F)(F)F.[Br-].[Br-]` [compound 6, 1,1'-((3,5-Bis(ethoxycarbonyl)-4-(2-(trifluoromethyl)phenyl)-1,4-dihydropyridine-2,6-diyl)bis(methylene))bis(pyridin-1-ium) dibromide], the IC50 in data set [1] (setting [8]) is above 100 µg/mL; with MH-22A (mouse hepatoma) [2] (Table 1, 72 h exposure), above 100 µg/mL; in the data set on MH-22A (mouse hepatoma) [3] (Table 1, 72 h exposure), above 100 µg/mL; in [4], above 100 µg/mL; in data set [5] (setting [9]), above 1000 µg/mL. Besides, the “LD50 (calculated, NIH3T3)” value in the data set on NIH3T3 was above 2000 mg/kg.
As for `CCCOCOC(=O)C1=C(C[n+]2ccccc2)NC(C[n+]2ccccc2)=C(C(=O)OCOCCC)C1c1ccccc1OC(F)F.[Br-].[Br-]` [compound 7, 1,1'-((4-(2-(Difluoromethoxy)phenyl)-3,5-bis((propoxymethoxy)carbonyl)-1,4-dihydropyridine-2,6-diyl)bis(methylene))bis(pyridin-1-ium) dibromide], the IC50 is above 100 µg/mL in data set [1] (setting [8]); above 100 µg/mL in the data set on MH-22A (mouse hepatoma) [2] (Table 1, 72 h exposure); above 100 µg/mL in the data set with MH-22A (mouse hepatoma) [3] (Table 1, 72 h exposure); above 100 µg/mL in data set [4]; above 1000 µg/mL in data set [5] (setting [9]). For the same molecule, the “LD50 (calculated, NIH3T3)” value with NIH3T3 was above 2000 mg/kg.
For the molecule `CCOC(=O)C1=C(C[n+]2ccccc2)NC(C[n+]2ccccc2)=C(C(=O)OCC)C1C(=O)OC.[Br-].[Br-]` [compound 8, 1,1'-((3,5-Bis(ethoxycarbonyl)-4-(methoxycarbonyl)-1,4-dihydropyridine-2,6-diyl)-bis(methylene))bis(pyridin-1-ium) dibromide], the IC50 was above 100 µg/mL in [1] (setting [8]); above 100 µg/mL in the data set on MH-22A (mouse hepatoma) [2] (Table 1, 72 h exposure); above 100 µg/mL with MH-22A (mouse hepatoma) [3] (Table 1, 72 h exposure); above 100 µg/mL in data set [4]; above 1000 µg/mL in [5] (setting [9]). Also, the “LD50 (calculated, NIH3T3)” value in the data set with NIH3T3 was above 2000 mg/kg.
For the molecule `CCCCCCCCCCCCOC(=O)C1=C(C[n+]2ccccc2)NC(C[n+]2ccccc2)=C(C(=O)OCCCCCCCCCCCC)C1c1ccccc1` [compound 11, 1,1'-((3,5-Bis((dodecyloxy)carbonyl)-4-phenyl-1,4-dihydropyridine-2,6-diyl)bis(methylene))bis(pyridin-1-ium) ditetrafluoroborate], the IC50 in [1] (setting [8]) was found to be 28 ± 9 µg/mL; in the data set with MH-22A (mouse hepatoma) [2] (Table 1, 72 h exposure), 30 ± 6 µg/mL; in the data set on MH-22A (mouse hepatoma) [3] (Table 1, 72 h exposure) it was 30 ± 9 µg/mL; in data set [4], 31 ± 4 µg/mL; in [5] (setting [10]) it was 47 ± 8 µg/mL. Moreover, the IC50 at 72 h in [6] was around 30 µg/mL.
With `CCCCCCCCCCCCOC(=O)C1=C(C[N+](C)(C)C2CCCCC2)NC(C[N+](C)(C)C2CCCCC2)=C(C(=O)OCCCCCCCCCCCC)C1c1ccccc1.[O-][Cl+3]([O-])([O-])[O-].[O-][Cl+3]([O-])([O-])[O-]` [compound 17, N,N'-((3,5-Bis((dodecyloxy)carbonyl)-4-phenyl-1,4-dihydropyridine-2,6-diyl)bis(methylene))bis(N,N-dimethylcyclohexanaminium) diperchlorate], the IC50 was 23 ± 3 µg/mL in [1] (setting [8]); 54 ± 16 µg/mL in the data set on MH-22A (mouse hepatoma) [2] (Table 1, 72 h exposure); 35 ± 9 µg/mL in the data set with MH-22A (mouse hepatoma) [3] (Table 1, 72 h exposure); 23 to 54 µg/mL in “in vitro”; 35 ± 9 µg/mL in data set [4]; 59 ± 12 µg/mL in data set [5] (setting [10]).
Regarding `CCCCCCCCCCCCOC(=O)C1=C(C[n+]2ccccc2)NC(C[n+]2ccccc2)=C(C(=O)OCCCCC(F)(F)C(F)(F)C(F)(F)C(F)(F)C(F)(F)C(F)(F)C(F)(F)C(F)(F)F)C1c1ccccc1` (stereo not shown) [compound 23, Dodecyl 5,5,6,6,7,7,8,8,9,9,10,10,11,11,12,12,12-heptadecafluorododecyl 1,4-dihydro-2,6-dimethyl-4-phenylpyridine-3,5-dicarboxylate-2,6-dipyridinium dibromide], the IC50 in data set [1] (setting [8]) is 47 ± 8 µg/mL; with MH-22A (mouse hepatoma) [2] (Table 1, 72 h exposure) it was 47 ± 2 µg/mL; in the data set with MH-22A (mouse hepatoma) [3] (Table 1, 72 h exposure), 75 ± 11 µg/mL; in the data set “in vitro”, 47 to 75 µg/mL; in [4] it was 50 ± 6 µg/mL; in [5] (setting [10]) it was 477 ± 25 µg/mL. The “Oxidation potential E^ox” value in data set [7] is listed as 1.70 V. For the same molecule, the electrooxidation potential in data set [7] is 1.69–1.70 V.
For the molecule `O=C(OCCCCC(F)(F)C(F)(F)C(F)(F)C(F)(F)C(F)(F)C(F)(F)C(F)(F)C(F)(F)F)C1=C(C[n+]2ccccc2)NC(C[n+]2ccccc2)=C(C(=O)OCCCCC(F)(F)C(F)(F)C(F)(F)C(F)(F)C(F)(F)C(F)(F)C(F)(F)C(F)(F)F)C1c1ccccc1` [compound 24, Bis(5,5,6,6,7,7,8,8,9,9,10,10,11,11,12,12,12-heptadecafluorododecyl) 1,4-dihydro-2,6-dimethyl-4-phenylpyridine-3,5-dicarboxylate-2,6-dipyridinium bromide], the IC50 in [1] (setting [8]) was 100 ± 9 µg/mL; in the data set with MH-22A (mouse hepatoma) [2] (Table 1, 72 h exposure) it was above 100 µg/mL; in the data set with MH-22A (mouse hepatoma) [3] (Table 1, 72 h exposure), above 100 µg/mL; in “in vitro” it was around 100 µg/mL; in [4], 100 ± 11 µg/mL; in data set [5] (setting [10]), above 1000 µg/mL. The “Oxidation potential E^ox” value in data set [7] came out at 1.69 V. In addition, the electrooxidation potential in data set [7] was 1.69–1.70 V.
In the case of `CCCCCCCCCCCCOC(=O)C1=C(C[n+]2ccccc2)NC(C[n+]2ccccc2)=C(C(=O)OCCCCCCCCCCCC)C1c1ccc(C2C(C(=O)OCCCCCCCCCCCC)=C(C[n+]3ccccc3)NC(C[n+]3ccccc3)=C2C(=O)OCCCCCCCCCCCC)cc1.[Br-].[Br-].[Br-].[Br-]` [compound 26, 1,1',1'',1'''-((1,4-Phenylenebis(3,5-bis((dodecyloxy)carbonyl)-1,4-dihydropyridine-4,2,6-triyl))tetrakis(methylene))tetrakis(pyridin-1-ium) tetrabromide], the IC50 was found to be 14 ± 2 µg/mL in [1] (HT-1080, 72 h); 27 ± 6 µg/mL in the data set with MH-22A (mouse hepatoma) [2] (72 h); 21 ± 4 µg/mL in the data set with MH-22A (mouse hepatoma) [3] (72 h); 12 ± 4 µg/mL in [4]; 717 ± 56 µg/mL in data set [5] (setting [9]). Besides, in the data set “in vitro”, the IC50 at 72 h is 12 to 27 µg/mL.
`O=C1CC(c2ccccc2)C(C(=O)OCCCCC(F)(F)C(F)(F)C(F)(F)C(F)(F)C(F)(F)C(F)(F)C(F)(F)C(F)(F)F)=C([P+](c2ccccc2)(c2ccccc2)c2ccccc2)N1.[Br-]` (stereo not shown) [compound 30, (3-(((5,5,6,6,7,7,8,8,9,9,10,10,11,11,12,12,12-Heptadecafluorododecyl)oxy)carbonyl)-6-oxo-4-phenyl-1,4,5,6-tetrahydropyridin-2-yl)triphenylphosphonium bromide]: the IC50 is 9 ± 2 µg/mL in data set [1] (HT-1080, Table 2, 72 h exposure); 30 ± 11 µg/mL in the data set on MH-22A (mouse hepatoma) [2] (Table 2, 72 h exposure); 39 ± 5 µg/mL in the data set on MH-22A (mouse hepatoma) [3] (Table 2, 72 h exposure); 10 ± 2 µg/mL in [4]; 127 ± 11 µg/mL in [5] (NIH3T3, 24 h, read-out: NIH3T3 IC50 (NR), Table 2, 24 h exposure). In the data set with NIH3T3 (from LD50 1779 mg/kg versus 604 mg/kg), the “times less cytotoxic than dihydropyridone 31 in the NIH3T3 cells” value is reported as “about 3 times”.
Regarding `CCCCCCCCCCCCCCCCOC(=O)/C=C(\N)C[N+](C)(C)CCCCCCCCCCCC` [compound 44, (Z,E)-N-(2-Amino-4-(hexadecyloxy)-4-oxobut-2-en-1-yl)-N,N-dimethyldodecan-1-aminium bromide], the IC50 in data set [1] (HT-1080, Table 3, 72 h exposure) is 3 ± 0.3 µg/mL; with MH-22A (mouse hepatoma) [2] (Table 3, 72 h exposure), 25 ± 3 µg/mL; in the data set with MH-22A (mouse hepatoma) [3] (Table 3, 72 h exposure), 28 ± 6 µg/mL; in data set [4], 3 ± 0.4 µg/mL; in [5] (NIH3T3, read-out: IC50 in NIH3T3 cell lines), around 30 µg/mL. Moreover, in the data set on NIH3T3 (Table 3, calculated from NIH3T3 IC50 by regression formula), the “NIH3T3 LD50” value is reported as 697 mg/kg. Besides, in data set [7], the “Oxidation potential E^ox” value is 1.24 V. Further, the electrooxidation potential in [7] came to 1.24 V. Moreover, in data set [5] (Table 3, 24 h exposure), the “NIH3T3 IC50 (NR)” value was found to be 31 ± 8 µg/mL.
